One test deals with T1, MRP2/ABCC2 (Homo sapiens, UniProt Q92887).
T1 construct: purchased SOLVO biotechnology, Budapest, Hungary
Nature of the test: Efflux transporter inhibition, vesicular uptake into inside-out membrane vesicles (ABCC2). The format is biochemical. The conditions noted are these: 100 μM 5(6)-carboxy-2′,7′-dichlorofluorescein. How it is done:
(§1) Efflux transporter inhibition was evaluated by measuring vesicular uptake into inside-out membrane vesicles (SOLVO biotechnology, Budapest, Hungary) expressing a single human ABC transporter (0.67 mg/mL ABCB1; 0.67 mg/mL ABCC2; 0.33 mg/mL ABCG2 membrane protein) of a probe substrate (1 μM N-methyl-quinidine for ABCB1; 100 μM 5(6)-carboxy-2′,7′-dichlorofluorescein for ABCC2; 1 μM Eestrone-3-sulfate for ABCG2) in the presence of SCO-101 with and without ATP (4 mM) in 96-well plate format. Control solvent and control inhibitors (4–60 μM verapamil for […]; 1–15 μM sulfasalazine for ABCG2; 5.5–150 μM benzbromarone for ABCC2) were incubated in parallel. Vesicular uptake was conducted at 37 °C in incubation buffer (10 mM Tris-HCl, pH 7.4, 10 mM MgCl2, 250 mM sucrose) and terminated after 1 min (ABCB1 and ABCG2) or 5 min (ABCC2) by adding ice-cold washing buffer (10 mM Tris-HCl, pH 7.4, 100 mM NaCl, 250 mM sucrose). […] Probe quantification was conducted using LC-MS/MS peak areas (solvent control with ATP − AMP = 100%). […] The remaining transporter activity % was calculated according to the formula below, and fitting was performed using GraphPad Prism: A%=AATP,sample−AAMP,sample/AATP,solvent−AAMP,solvent

A further test has as its system SNU-5 cells. Kind of test: Cell viability assay (CellTiter-Glo), SNU-5. Format: cell-based. The following applies: Homo sapiens, 96 h. As for the experimental part: (§2) Cells were seeded at a density of 0.2–1 × 10^4 cells/well into 96-well plates. One day after seeding, treatments were performed in triplicate for 72 h, or as otherwise indicated in the relevant panel/figure legend and kept at 37 °C/5% CO2. Growth medium alone (“untreated” cells) or DMSO was used as a control.
For SCH, SNU-5, and MKN45 cells, 50 μL of CellTiter-Glo® Reagent (Promega; Madison, WI, USA) was added to each well at the end of the treatments. The content was mixed for 5 min to facilitate cell lysis and plates incubated at room temperature for 10 min to stabilize luminescent signals, which were then recorded using an EnVision Multi Label Reader (PerkinElmer; Waltham, MA, USA).
Background values were subtracted prior to further analysis. The percentage of cell viability was expressed as relative values versus untreated cells as determined by the various assays. EC50/IC50 values were calculated using GraphPad Prism (v10.4.1) and the in-built non-linear regression [log (inhibitor) vs. response—variable slope (four parameters)] calculation. […] Synergy scores were calculated using the ZIP model, which takes the advantages of both the Loewe additivity and the Bliss independence models, aiming at a systematic assessment of various types of drug interaction patterns that may arise in a high-throughput drug combination screening.
Background: In ATP-based viability assays light output follows the ATP content of the culture.

Test [1] has as its system HT29SN-38 cells. Nature of the test: Cellular dye efflux assay (Hoechst 33342), resistant cells. The format is cell-based, human. The following applies: SCO-101 20 µM, Ko-143 1 µM, PSC833 1 µM. How it is done:
(§3) Twenty-four hours before the experiments, cells were seeded into 96-well Nunclon^TM plates at a density of 6000 (HT29), 7000 (PANC-1) or 8000 (LoVo) cells/well. The following day, cells were treated in triplicate with the relevant drugs at the indicated concentrations for 1 h. Next, 5 μg/mL Hoechst 33342 was added to the wells, and plates incubated at 37 °C for 30 min^−1 h. Cells were washed with cold PBS, treatments re-added and plates re-incubated at 37 °C for 30 min to 1 h. Plates were analyzed using a Celigo® (Nexcelom Bioscience, Lawrence, MA, USA) imaging cytometer. Data are expressed as percentages of fluorescence intensity, calculated through the following formula: % fluorescence intensity=Mean fluorescence intensity of sample/Mean fluorescence intensity of parental control×100
(§4) Fluorescent images were captured with an Olympus® IX71/TH4-200 microscope equipped with an Olympus® DP72 camera (Shinjuku, Tokyo, Japan), and cells were seeded at a 1.5 × 10^5 cells/well density and treated as described above.

The next test concerns HT29PAR cells. Nature of the test: Cellular dye efflux assay (Hoechst 33342), parental cells. Format: cell-based, human. The following applies: SCO-101 20 µM, Ko-143 1 µM. How it is done:
as §3, §4

Another test deals with MDR1/ABCB1 (Homo sapiens, UniProt P08183). Nature of the test: Efflux transporter inhibition, vesicular uptake into inside-out membrane vesicles (ABCB1). Format: biochemical. The following applies: 1 μM N-methyl-quinidine. How it is done:
as §1

Test [2] deals with HT29SN-38 cells. Nature of the test: Cell viability assay (MTT / CCK-8), SN-38-resistant HT29. Format: cell-based, human. How it is done:
as §2
For MTT assays, media were replaced at the final timepoint with 100 μL of 1:10 MTT reagent (0.5 mg/mL in PBS) diluted in growth medium, and plates were incubated for 3 h. A total of 100 μL/well of stop buffer (50 g Sodium Dodecyl Sulfate, 245 mL ddH2O, 5 mL 1N HCl) was added and plates incubated for 24 h to let colored formazan crystals develop. Optical densities (ODs) were measured with a PowerWave^TM Microplate spectrophotometer (BioTek, Winooski, VT, USA) at 570 nm and 670 nm (background).
For CCK-8 assays, 100 μL of 1:10 CCK-8 reagent (pevonedistat-treated HT29 cells) diluted in medium was added to each well and cells incubated for 1–2 h at 37 °C. OD values were measured at 450 nm with a VersaMax microplate spectrophotometer (Molecular Devices, San Jose, CA, USA).
Background values were subtracted prior to further analysis. The percentage of cell viability was expressed as relative values versus untreated cells as determined by the various assays. EC50/IC50 values were calculated using GraphPad Prism (v10.4.1) and the in-built non-linear regression [log (inhibitor) vs. response—variable slope (four parameters)] calculation. For determination of synergy scores, the online tool SynergyFinder+ (https://synergyfinder.org access date 15 February 2025) was employed following 4 × 4- or 6 × 6-matrix dose-escalation cell viability experiments. Doses of drugs are indicated in the relevant figure legends and ranges have been chosen based on the response of cells to single-drug dose-dependent experiments. Synergy scores were calculated using the ZIP model, which takes the advantages of both the Loewe additivity and the Bliss independence models, aiming at a systematic assessment of various types of drug interaction patterns that may arise in a high-throughput drug combination screening.

Chain of MDR1/ABCB1 (P08183 whole entry): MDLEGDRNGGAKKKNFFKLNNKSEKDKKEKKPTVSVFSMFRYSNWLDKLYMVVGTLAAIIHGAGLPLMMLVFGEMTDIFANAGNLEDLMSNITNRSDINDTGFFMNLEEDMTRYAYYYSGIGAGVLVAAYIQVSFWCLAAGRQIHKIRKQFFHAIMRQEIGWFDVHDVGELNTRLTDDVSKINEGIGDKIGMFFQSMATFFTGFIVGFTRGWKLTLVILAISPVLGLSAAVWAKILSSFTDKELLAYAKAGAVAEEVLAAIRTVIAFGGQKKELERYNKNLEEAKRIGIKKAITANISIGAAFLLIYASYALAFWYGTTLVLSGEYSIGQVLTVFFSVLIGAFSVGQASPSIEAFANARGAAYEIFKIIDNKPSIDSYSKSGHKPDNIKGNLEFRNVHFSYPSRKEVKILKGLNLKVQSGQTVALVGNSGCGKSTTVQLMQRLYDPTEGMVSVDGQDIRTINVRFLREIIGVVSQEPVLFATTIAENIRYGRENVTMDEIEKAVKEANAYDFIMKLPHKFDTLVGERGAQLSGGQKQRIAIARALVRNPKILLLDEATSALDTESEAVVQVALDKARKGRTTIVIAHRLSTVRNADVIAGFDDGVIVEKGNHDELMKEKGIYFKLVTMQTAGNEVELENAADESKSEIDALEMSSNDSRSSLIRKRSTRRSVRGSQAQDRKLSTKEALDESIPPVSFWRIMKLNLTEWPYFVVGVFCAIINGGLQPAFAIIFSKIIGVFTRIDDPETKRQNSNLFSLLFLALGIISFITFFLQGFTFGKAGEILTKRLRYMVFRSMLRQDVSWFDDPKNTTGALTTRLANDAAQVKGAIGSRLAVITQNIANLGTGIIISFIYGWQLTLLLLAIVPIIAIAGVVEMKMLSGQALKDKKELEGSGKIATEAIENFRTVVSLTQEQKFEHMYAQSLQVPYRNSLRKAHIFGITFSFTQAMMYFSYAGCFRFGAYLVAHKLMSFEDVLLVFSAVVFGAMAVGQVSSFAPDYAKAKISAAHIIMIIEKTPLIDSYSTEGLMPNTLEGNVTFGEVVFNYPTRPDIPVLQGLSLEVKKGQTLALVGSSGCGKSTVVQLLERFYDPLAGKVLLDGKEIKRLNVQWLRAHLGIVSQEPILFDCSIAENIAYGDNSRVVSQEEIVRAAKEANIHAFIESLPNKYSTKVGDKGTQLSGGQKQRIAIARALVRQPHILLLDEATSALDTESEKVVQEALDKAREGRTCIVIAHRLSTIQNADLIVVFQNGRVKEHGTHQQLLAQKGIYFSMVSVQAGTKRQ
T1 sequence (Q92887 whole entry): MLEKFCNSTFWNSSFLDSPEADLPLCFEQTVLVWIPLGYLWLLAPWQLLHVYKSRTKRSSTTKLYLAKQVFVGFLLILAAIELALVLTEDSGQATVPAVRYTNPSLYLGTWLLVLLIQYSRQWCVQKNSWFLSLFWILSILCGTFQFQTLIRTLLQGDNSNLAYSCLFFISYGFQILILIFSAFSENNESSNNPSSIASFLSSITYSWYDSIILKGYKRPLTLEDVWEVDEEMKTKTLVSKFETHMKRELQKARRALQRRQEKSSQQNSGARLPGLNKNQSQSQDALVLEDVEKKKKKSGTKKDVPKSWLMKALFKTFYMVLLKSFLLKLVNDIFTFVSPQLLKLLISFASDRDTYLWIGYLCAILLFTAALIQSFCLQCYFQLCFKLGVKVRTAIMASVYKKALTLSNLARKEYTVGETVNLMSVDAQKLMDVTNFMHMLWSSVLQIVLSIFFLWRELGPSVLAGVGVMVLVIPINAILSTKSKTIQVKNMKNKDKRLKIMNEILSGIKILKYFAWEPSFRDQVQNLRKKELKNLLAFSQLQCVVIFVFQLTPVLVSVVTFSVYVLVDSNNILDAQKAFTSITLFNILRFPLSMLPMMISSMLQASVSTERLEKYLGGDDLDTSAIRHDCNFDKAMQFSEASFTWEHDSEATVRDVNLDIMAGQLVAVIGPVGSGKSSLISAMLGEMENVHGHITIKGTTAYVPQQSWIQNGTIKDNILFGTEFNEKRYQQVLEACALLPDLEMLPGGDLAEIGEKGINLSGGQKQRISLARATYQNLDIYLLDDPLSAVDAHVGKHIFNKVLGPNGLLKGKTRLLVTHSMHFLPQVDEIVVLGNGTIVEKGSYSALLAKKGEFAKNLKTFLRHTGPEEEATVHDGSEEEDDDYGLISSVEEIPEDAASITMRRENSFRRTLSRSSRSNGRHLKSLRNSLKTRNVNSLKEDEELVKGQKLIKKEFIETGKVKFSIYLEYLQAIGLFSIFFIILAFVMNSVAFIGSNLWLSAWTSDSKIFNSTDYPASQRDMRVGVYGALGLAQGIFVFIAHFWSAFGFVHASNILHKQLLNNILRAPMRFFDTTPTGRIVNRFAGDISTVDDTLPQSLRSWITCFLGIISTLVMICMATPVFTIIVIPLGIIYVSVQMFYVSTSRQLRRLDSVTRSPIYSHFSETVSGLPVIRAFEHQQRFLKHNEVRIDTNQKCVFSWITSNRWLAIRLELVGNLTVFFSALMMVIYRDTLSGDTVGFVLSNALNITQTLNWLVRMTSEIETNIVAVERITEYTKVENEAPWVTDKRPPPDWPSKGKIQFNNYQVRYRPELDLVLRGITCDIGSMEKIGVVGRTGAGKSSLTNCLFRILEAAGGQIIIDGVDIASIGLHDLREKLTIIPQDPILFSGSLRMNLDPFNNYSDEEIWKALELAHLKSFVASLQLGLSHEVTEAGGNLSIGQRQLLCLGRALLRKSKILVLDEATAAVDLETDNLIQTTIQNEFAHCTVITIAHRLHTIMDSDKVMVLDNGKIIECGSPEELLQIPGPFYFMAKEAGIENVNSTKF

The IC50 is the concentration at which inhibition is half-maximal. In the case of `O=C(Nc1cc(C(F)(F)F)cc(C(F)(F)F)c1)Nc1ccc(Br)cc1-c1nnn[nH]1` [SCO-101, N-[4-Bromo-2-(1H-1,2,3,4-tetrazol-5-yl)phenyl]-N′-[3,5-bis(trifluoromethyl)phenyl]urea], the IC50 on MRP2/ABCC2 was 24.1 µM; in the test on SNU-5 cells, over 50 µM; against MDR1/ABCB1, 16.1 µM; in the test with HT29SN-38 cells [2] (Homo sapiens, HT-29, 72 h), over 25 µM. Besides, the H33342 dye accumulation result was “restored” in the test on HT29SN-38 cells [1] and “No change” with HT29PAR cells. Besides, the “cell viability, SCO-101 in combination with SN-38” value in the test with HT29SN-38 cells [2] (SCO-101 0–50 µM + SN-38 0.08 μM) is on record as “re-sensitization”. Besides, the “cell viability after 24 h combination treatment and drug washout” value in the test on HT29SN-38 cells [2] (SCO-101 15 μM + SN-38 0.5 μM, washout 48 h or 120 h) is recorded as “significant cytotoxic effect”. In addition, the “cell viability after 24 h single treatment and drug washout” value with HT29SN-38 cells [2] (SCO-101 15 μM or SN-38 0.5 μM alone, washout 48 h or 120 h) is listed as “did not affect cell viability”.

The values are drawn from article PMC12027554, “Inhibition of ABCG2 by SCO-101 Enhances Chemotherapy Efficacy in Cancer” (International Journal of Molecular Sciences, 2025).
